In patent US20170311603A1 (priority 2014, published 2017):

Assays:
B. cinerea B0510 = assay: Mycelial growth of B. cinerea on supplemented PDA medium (Example 2); assay type: cell-based, Botrytis cinerea; conditions: after 8 days, versus control (100%)
[1] = system: N. parvum isolate Bourgogne S-116; assay: Mycelial growth of N. parvum on supplemented PDA medium (Example 1); assay type: cell-based, Neofusicoccum parvum; conditions: after 4 days, versus control (100%)
[2] = system: N. parvum isolate Bourgogne S-116; parameters: species or system V. vinifera L. cv. Chardonnay; conditions: in vivo
[3] = system: Calli of V. vinifera cv. Chardonnay; assay: Phytotoxicity on grapevine cell clusters (calli) (Example 4); assay type: cell-based, V. vinifera L. cv. Chardonnay; conditions: for appearance and color of the calli: MPM1 medium supplemented with 5 or 10 mM
Protocol: Calli (or undifferentiated cell clusters) of V. vinifera cv. Chardonnay are obtained from anthers as described in Mauro et al. (1986) and in Bertsch et al. (2005).
All the calli are inoculated on fresh solid MPM1 medium (Perrin et al. 2004) every 3 weeks and incubated at 25±0.5° C. in the dark with a relative humidity of 70±10%.
This experiment was repeated three times. For each condition, 15 white-yellow calli, with a diameter of 10±2 mm, were used.
Calli growth in each condition tested is evaluated by weighing each day for 5 days. Duncan's statistical test (with p≦0.05) was applied to the means and standard deviations of the results thus obtained. In addition to weighing, we visually evaluate the appearance and color of the calli according to their culture medium for 2 months.

| SMILES | inhibition of the growth of the fungus on the culture medium (B. cinerea B0510) | inhibition of the growth of the fungus on the culture medium [1] | reduction in the surface area of the necrotic lesions [2] [%] | appearance and color of the calli [3] | growth of the calli (weighing) ([3]; supplemented MPM1 medium, 5 days of culture) | inhibition of the development of necrosis on the inoculated internodes [2] |
| --- | --- | --- | --- | --- | --- | --- |
| O=C([O-])CC(O)(CC(=O)[O-])C(=O)[O-].[Bi+3] [bismuth citrate] | do not significantly inhibit the growth of the fungus | do not significantly inhibit the growth of the fungus |  |  |  |  |
| [Bi+3].[Bi+3].[O-2].[O-2].[O-2] [bismuth oxide] | do not significantly inhibit the growth of the fungus | do not significantly inhibit the growth of the fungus | 5 | no change |  |  |
| O=C1[O][Bi]([OH])[O]c2ccccc21 [bismuth subsalicylate] |  |  |  | light grayish coloring at the periphery of the calli but no necrosis | no impact in terms of growth, multiplication or necrotic appearance |  |
| [O-2].[O-2].[O-2].[Sb+3].[Sb+3] [antimony oxide] | do not significantly inhibit the growth of the fungus | do not significantly inhibit the growth of the fungus |  |  |  |  |
| O=C(O)c1ccccc1O [salicylic acid] |  |  |  | light grayish coloring at the periphery of the calli but no necrosis |  | does not significantly inhibit the development of necrosis |
